{"source": "patent US20090181098A1", "about": "“Hmg-Co-a Reductase Inhibitor Enhancement of Bone and Cartilage” (OsteoScreen IP, LLC, priority 2006, published 2009)", "key": {"intact rats": {"test_system": "intact rats", "test": "Effects of transdermal lovastatin on bone in intact rats (BMD, histomorphometry, μCT)", "format": "in vivo, rat", "conditions": "for Increase in bone volume, proximal tibial metaphysis: dermal, hydrophilic petrolatum, 4 weeks after treatment", "procedure": "Following sacrifice, both femurs and tibiae were removed, cleaned of soft tissue, fixed in 10% formalin for 48 hours, and then stored in 70% ETOH and prepared for histology. Histomorphometric analysis was performed using a semiautomated Osteomeasure System (Osteometrics, Inc., Atlanta, Ga.) and digitizing pad and by following standard histomorphometric techniques. Bone volume, trabecular number, thickness and separation, cell number and dynamic parameters were determined as described previously by Parfitt et al. [Parfitt A M (1988) Bone histomorphometry: standardization of nomenclature, symbols and units. Summary of proposed system. J Bone Miner Res 4:1-5.]. Bone formation rates (BFR) and mineral apposition rates (MAR) were measured in plastic-embedded sections following demeclocycline and calcein injections (15 and 20 mg/kg/body weight respectively) given intraperitoneally at 10 and 4 days before sacrifice. Values for MAR were corrected for obliquity of the plane of section in cancellous bone. Rats were evaluated with a mouse densitometer, Piximus (GE Medical Systems); bone mineral density (BMD), calculated by dividing bone mineral content (g) by the projected bone area (cm^2), was assessed for the proximal third of the tibia at time 0 and at 5 weeks. Micro-computed tomography (μ-CT) analysis of the rat distal femur was kindly performed by Phil Salmon (Skyscan, Belgium). Bones were scanned using the Skyscan Model 1072 employing an x-ray tube voltage of 100 kV, and magnified to attain a pixel size of 10.13 μm. Data are expressed as the mean standard error (SEM). Statistical differences between groups were evaluated with one-way analysis of variance (ANOVA). […] P<0.05 were considered significant."}, "[1]": {"test": "Plasma lovastatin by mass spectroscopy, fracture Experiment 2", "format": "in vivo", "conditions": "rat, 3 hrs after the last dose, read-out: Plasma lovastatin level", "procedure": "Plasma was taken from the rats 3 hrs after the last dose and the lovastatin was measured by mass spectroscopy. […] Effective plasma levels from transdermal administration is on the order of 2-3 ng/ml."}, "femur fracture model": {"test_system": "femur fracture model", "test": "Femur fracture model, systemically delivered lovastatin (radiographs, biomechanics)", "format": "in vivo, rat"}, "[2]": {"test": "Plasma lovastatin by mass spectroscopy after local nanobeads", "format": "in vivo, rat", "conditions": "any of the dosed groups, end of the experiment", "procedure": "Plasma was taken from the rats 3 hrs after the last dose and the lovastatin was measured by mass spectroscopy."}, "[3]": {"test": "Plasma lovastatin levels after a single oral or dermal dose, estimated by HMG-CoA reductase inhibition assay", "format": "in vivo, rat", "procedure": "The area under the plasma concentration-time curve (AUC0-24 hr) of lovastatin equivalence was calculated using the trapezoidal rule for both oral and dermal application of lovastatin. For oral administration, a suspension of lovastatin was prepared in 0.5% methylcellulose and administered by gavage. For dermal administration, lovastatin was mixed initially with 100% DMSO and in subsequent experiments, with hydrophilic petrolatum and applied to the back of the animals after shaving (area of application=6.45 cm^2). In later experiments, the dermal formulation was modified and a aqueous alkanolic gel with a carbomer-based formulation containing water, ethanol, Carbomer 940, cholesterol, BHA and TEA was used."}, "rat femur": {"test_system": "rat femur", "test": "Biomechanical testing of intact femurs (three point bending)", "format": "in vivo", "procedure": "Three month old rats were dosed with vehicle or transdermal lovastatin, 1 mg/kg/day for 5 days. Four weeks after dosing, rats were euthanized and femurs removed and stored frozen. Samples were thawed to room temperature on the day of testing, and remaining soft tissue was removed. To obtain mechanical properties, the femurs were subjected to three point bending with an EnduraTEC mechanical testing system (Elf 3300, Bose Corporation, Minnetonka, Minn.). Each rat femur was horizontally positioned on the support rollers (which were 12 mm apart) such that the vertical, rounded indenter loaded the femur with the medial side in front and the anterior side down (i.e., bending occurred about the medial-lateral axis). The force-displacement curve was recorded as the indenter traveled at rate of 3 mm/min into femur midshaft. Structural properties were obtained directly from the load deformation curves."}, "[4]": {"conditions": "transdermal 1 and 5 mg/kg/day for 5 days"}, "[5]": {"conditions": "transdermal 1 mg/kg/day for 5 days, femurs four weeks after dosing"}}, "note": "Like-named read-outs stand apart in the source and are kept apart here."}
{"smiles": "CC[C@H](C)C(=O)O[C@H]1C[C@@H](C)C=C2C=C[C@H](C)[C@H](CC[C@@H]3C[C@@H](O)CC(=O)O3)[C@H]21", "note": "[lovastatin]", "values": [{"measurement": "Bone formation rates greater than those of control rats", "setting": "intact rats; after 30 days, transdermal 5 days", "value": "more than 150%"}, {"measurement": "Increase in bone formation rates", "setting": "intact rats; dermal 5 mg/kg/day", "value": 166, "unit": "%"}, {"measurement": "Increase in bone volume, proximal tibial metaphysis", "setting": "intact rats; 1 mg/kg/day for 5 days only", "value": 17, "unit": "%"}, {"measurement": "Increase in bone volume, proximal tibial metaphysis", "setting": "intact rats; 5 mg/kg/day for 5 days only", "value": 33, "unit": "%"}, {"measurement": "Cancellous bone volume in distal femoral metaphyses by μCT vs controls", "setting": "intact rats; [4]", "value": "higher cancellous bone volume"}, {"measurement": "Trabecular thickness, number and spacing by μCT", "setting": "intact rats; [4]", "value": "increase in trabecular thickness and number, and reduced trabecular spacing"}, {"measurement": "Increase in BMD over vehicle-treated controls", "setting": "intact rats; weekly dermal administration, proximal tibiae, Piximus, end of five weeks", "value": 8, "unit": "%"}, {"measurement": "concentration at 3 h", "setting": "[1]; oral 5 mg/kg/day", "value": 10, "unit": "ng/mL"}, {"measurement": "concentration at 3 h", "setting": "[1]; topical, transdermal 0.1 and 1 mg/kg/day", "value": "2 to 3", "unit": "ng/mL"}, {"measurement": "Maximum force to break the bones, 2.5 mg/kg vs 1 mg/kg/day", "setting": "femur fracture model; Experiment 1, 5 day transdermal dose of 2.5 mg/kg, 6 weeks", "value": "lower maximum force than the 1 mg/kg/day dose"}, {"measurement": "Radiological evaluation of fracture repair", "setting": "femur fracture model; Experiment 1, oral 10 and 25 mg/kg, six weeks", "value": "no difference between the treated and the controls"}, {"measurement": "Radiographic score at 2 weeks", "setting": "femur fracture model; Experiment 1, oral 10 and 25 mg/kg/day", "value": "no difference from vehicle-treated controls"}, {"measurement": "Force required to break the bone", "setting": "femur fracture model; Experiment 1, oral 10 and 25 mg/kg/day, 6 weeks", "value": "no effect"}, {"measurement": "Radiographic score at 2 weeks", "setting": "femur fracture model; Experiment 1, transdermal 1 and 2.5 mg/kg/day", "value": "striking effect at both doses"}, {"measurement": "Force required to break the bone, greater than vehicle treated controls", "setting": "femur fracture model; Experiment 1, transdermal, 6 weeks", "value": 42, "unit": "%"}, {"measurement": "Radiological evaluation of fracture repair", "setting": "femur fracture model; Experiment 1, transdermal, week 6", "value": "complete healing by week 6"}, {"measurement": "Force required to break the bone, greater than vehicle-treated controls", "setting": "femur fracture model; Experiment 2, TD 0.1 mg/kg/day, 6 weeks", "value": 42, "unit": "%"}, {"measurement": "Maximum force to rebreak the bones", "setting": "femur fracture model; Experiment 2, TD doses higher than 0.1 mg/kg/day", "value": "reduced maximum force"}, {"measurement": "Force required to break the bone", "setting": "femur fracture model; Experiment 2, oral 5 mg/kg/day, 6 weeks", "value": "no effect"}, {"measurement": "Stiffness", "setting": "femur fracture model; Experiment 2, oral 5 mg/kg/day, 6 weeks after fracture", "value": "no effect"}, {"measurement": "Most effective transdermal dose", "setting": "femur fracture model; for 5 days", "value": 0.1, "unit": "mg/kg/day"}, {"measurement": "Stiffness", "setting": "femur fracture model; previous experiment (Experiment 1), oral, higher doses", "value": "increase in stiffness"}, {"measurement": "Fracture healing (radiographic examination and biomechanical loading)", "setting": "femur fracture model; transdermal", "value": "accelerates fracture healing"}, {"measurement": "Strength and stiffness of fractured bones", "setting": "femur fracture model; transdermal, even at 0.1 mg/kg/day for 5 days only", "value": "increase in both strength and stiffness"}, {"measurement": "Plasma lovastatin", "setting": "[2]", "value": "undetectable"}, {"measurement": "Plasma levels, aqueous alkanolic gel compared with hydrophilic petrolatum", "setting": "[3]; single dermal dose", "value": "higher plasma levels"}, {"measurement": "Time to peak plasma levels", "setting": "[3]; single dermal dose in aqueous alkanolic gel", "value": "within the first hour"}, {"measurement": "AUC0-24 h, aqueous alkanolic gel relative to petrolatum formulation", "setting": "[3]; single dermal dose, both doses tested (6.25 and 25 mg/kg)", "value": "more than double"}, {"measurement": "Plasma concentrations, dermal compared with oral", "setting": "[3]; single dose 10 or 50 mg/kg, dermal in 100% DMSO vs gavage in 0.5% methylcellulose, 1, 3, 6, 24 h", "value": "greater, less variable and more prolonged"}, {"measurement": "Increase in bending strength of femurs vs control", "setting": "rat femur; dermal 1 mg/kg/day for 5 days", "value": 19, "unit": "%"}, {"measurement": "Bending strength", "setting": "rat femur; [5]", "value": "165.2 ± 3", "unit": "MPa"}, {"measurement": "Maximum force", "setting": "rat femur; [5]", "value": "141.7 ± 3.4", "unit": "N"}, {"measurement": "Modulus of elasticity", "setting": "rat femur; [5]", "value": "6379.9 ± 455.1", "unit": "MPa"}, {"measurement": "Stiffness", "setting": "rat femur; [5]", "value": "561.3 ± 29.5", "unit": "N/mm"}]}
